Data on 34 compounds can be found in US6218431A, “Substituted biphenyls” (Bayer Corporation, priority 1997, dated 2001).

As usually defined, the IC50 is the concentration at which inhibition is half-maximal. For orientation: inhibition means the share of the control response that was lost under treatment. A low value points to a weak effect.

Assay [1] deals with rat liver membrane. Conditions: Collins et al. 1992; cited from earlier work.
In assay [2] the test system is rat liver membrane. The conditions noted are these: Collins et al. 1992; cited from earlier work. This is another data set of the same source.
Assay [3] deals with T1, glucagon receptor (Homo sapiens, UniProt P47871).
T1 construct: expressed in transfected cells; host or cells: Chinese Hamster Ovary cells (CHO-HGR), membranes
As to the kind of experiment: glucagon receptor binding assay (125I-glucagon, CHO-HGR membranes). Conditions: for IC50: 125I-glucagon, 60 min at room temperature, read-out: IC50; for inhibition at 20 µM: reported where 20 μM did not reduce glucagon binding by 50%. The procedure, abridged:
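Membranes from CHO cells expressing glucagon receptor (10 ug protein) in Tris pH 7.4 buffer with EDTA, BSA and bacitracin, incubated with test compound and 125I-glucagon (9 fmol) 60 min at room temperature. Bound radioactivity counted after filtration; nonspecific binding defined with 1 μM native glucagon; 0.5% DMSO.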

T1 sequence (P47871 26-477): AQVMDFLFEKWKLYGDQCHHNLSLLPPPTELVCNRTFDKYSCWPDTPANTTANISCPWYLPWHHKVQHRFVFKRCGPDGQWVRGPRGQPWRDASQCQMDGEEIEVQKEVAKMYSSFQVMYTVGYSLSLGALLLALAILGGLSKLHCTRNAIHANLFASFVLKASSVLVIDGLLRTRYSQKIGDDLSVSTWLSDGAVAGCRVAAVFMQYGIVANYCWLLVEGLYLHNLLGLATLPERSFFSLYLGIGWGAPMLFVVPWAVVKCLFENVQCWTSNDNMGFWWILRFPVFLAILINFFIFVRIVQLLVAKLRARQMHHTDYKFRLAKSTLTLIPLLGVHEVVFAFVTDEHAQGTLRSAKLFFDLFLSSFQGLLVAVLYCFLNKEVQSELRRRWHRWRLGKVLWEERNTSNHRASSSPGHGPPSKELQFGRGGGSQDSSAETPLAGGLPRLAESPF

For the compound `CN(C)CCCN(C)c1nc2cc(Cl)c(Cl)cc2nc1/C=C/c1ccccc1` [CP-99,711], the inhibit glucagon action entry in assay [1] was “micromolar concentrations”. Further, the inhibit glucagon binding result in assay [2] was “micromolar concentrations”. With `C=CCOCc1nc(C(C)C)c(CO)c(-c2ccc(F)cc2)c1CCCCC` [Example 203, 2-(Prop-2-enyloxy)methyl-3-pentyl-4-(4-fluorophenyl)-5-hydroxymethyl-6-isopropylpyridine], the IC50 in assay [3] came out at 6300 nM. As to `CCCCCC=Cc1c(C(C)C)nc(C(C)C)c(CO)c1-c1ccc(F)cc1` [Example 32, 2,6-Diisopropyl-3-hydroxymethyl-4-(4-fluorophenyl)-5-(1-heptenyl)-pyridine], the IC50 in assay [3] came to 1100 nM. Still for that read-out and setting: for `CC(C)c1nc(C(C)C)c(CCc2ccccc2)c(-c2ccc(F)cc2)c1CO` [Example 37, 2,6-Diisopropyl-3-hydroxymethyl-4-(4-fluorophenyl)-5-(2-phenylethyl)pyridine] the value was 750 nM.

As for `CCCCCc1c(C=CC(=O)OC)nc(C(C)C)c(CO)c1-c1ccc(F)cc1` [Example 215, 2-(2-Carbomethoxyethenyl)-3-pentyl-4-(4-fluorophenyl)-5-hydroxymethyl-6-isopropylpyridine], in assay [3], the IC50 came out at 19000 nM.

Regarding `CCCC=Cc1c(C(C)C)nc(C(C)C)c(CO)c1-c1ccc(C(C)C)cc1` [Example 133, 2,6-Diisopropyl-3-hydroxymethyl-4-(4-isopropylphenyl)-5-(pent-1-enyl)pyridine], in assay [3], at 20 µM the inhibition was 35.5%. For `CCc1c(C(C)C)nc(C(C)C)c(CO)c1-c1ccc(F)cc1` [Example 26, 2,6Diisopropyl-3-hydroxymethyl-4-(4-fluorophenyl)-5-ethylpyridine], in assay [3], the IC50 stood at 1000 nM. Still for that read-out and setting: for `CCCSCc1c(C(C)C)nc(C(C)C)c(CO)c1-c1ccc(F)cc1` [Example 66, 2,6-Diisopropyl-3-hydroxymethyl4-(4-fluorophenyl)-5-(propylthio)-methylpyridine] the value was 1000 nM; for `CC(C)c1nc2c(c(-c3ccc(F)cc3)c1CO)CCCC2(C)C` [Example 230, 2-Isopropyl-3-hydroxymethyl-4-(4-fluorophenyl)-5,6,7,8-tetrahydro-8,8-dimethylquinoline], 900 nM. Turning to `CCCc1c(C(C)C)nc(C(C)C)c(CO)c1-c1ccc(F)cc1` [Example 25, 2,6-Diisopropyl-3-hydroxymethyl-4-(4-fluorophenyl)-5-propylpyridine], in assay [3], the IC50 is 400 nM. For the compound `CC(C)c1nc(C(C)C)c(CN2CCCCC2)c(-c2ccc(F)cc2)c1CO` [Example 70, 2,6-Diisopropyl-3-hydroxymethyl-4-(4-fluorophenyl)-5-(piperidinomethyl)pyridine], the half-maximal inhibitory concentration (IC50) in assay [3] is 12000 nM. The same measure, in the same setting: for `CCCC=Cc1c(C(C)C)nc(C(C)C)c(CO)c1-c1cccc(C)c1` [Example 139, 2,6-Diisopropyl-3-hydroxymethyl-4-(3-methylphenyl)-5-(pent-1-enyl)-pyridine] the value was 17000 nM. Turning to `CC(C)c1nc(C(C)C)c(CSc2ccc(O)cc2)c(-c2ccc(F)cc2)c1CO` [Example 55, 2,6-Diisopropyl-3-hydroxymethyl-4-(4-fluorophenyl)-5-[(4-hydroxy-phenyl)thio]methylpyridine], 20 µM produced 15.7% inhibition in assay [3]. With `CCC/C=C/c1c(C(C)C)nc(C(C)C)c(CO)c1-c1ccc(C(F)(F)F)cc1` [Example 125, 2,6-Diisopropyl-3-hydroxymethyl-4-[(4-trifluoromethyl)phenyl]-5(pent-1-enyl)pyridine], in assay [3], testing at 20 µM gave an inhibition of 31.6%.

`CCCCCc1c(C(C)C)cc(C(C)C)c(C(C)O)c1-c1ccc(F)cc1O` (centres unmarked) [Example 247, 3,5-Diisopropyl-2-(1-hydroxyethyl)-6-pentyl-4'-fluoro-2'-hydroxy-1,1'-biphenyl]: the IC50 in assay [3] turned out to be 6 nM. Still for that read-out and setting: the same measure for `Cc1ccc(COCc2c(C(C)C)cc(C(C)C)c(C(C)O)c2-c2ccc(F)cc2)cc1` (single isomer, unassigned; (+)) [Example 248, (+)-3,5-Diisopropyl-2-[(p-methylbenzyloxy)methyl]-6-(1-hydroxyethyl)-4'-fluoro-1,1'-biphenyl]: 310 nM. On the same count and under the same terms, the same measure for `CCCCCc1c(C(C)C)nc(C(C)C)c(CO)c1-c1ccoc1` [Example 188, 2,6-Diisopropyl-3-hydroxymethyl-4-(3-furyl)-5-pentylpyridine]: 10500 nM; for `CC(C)c1nc(C(C)C)c(CSc2ccc(F)cc2)c(-c2ccc(F)cc2)c1CO` [Example 49, 2,6-Diisopropyl-3-hydroxymethyl-4-(4-fluorophenyl)-5-[(4-fluoro-phenyl)thio]methylpyridine]: 1100 nM. In assay [3], `CCCCCc1c(C(C)C)nc(C(C)C)c(CO)c1-c1cccc(C)c1` [Example 140, 2,6-Diisopropyl-3-hydroxymethyl-4-(3-methylphenyl)-5-pentylpyridine] yielded an inhibition at 20 µM of 46.3%. Regarding `CC1=CC(C)(C)Cc2c1nc(C(C)C)c(CO)c2-c1ccc(F)cc1` [Example 236, 2-Isopropyl-3-hydroxymethyl-4-(4-fluorophenyl)-5,6-dihydro-6,6,8-trimethylquinoline], the IC50 in assay [3] stood at 4000 nM.

For the compound `CC(C)c1nc(C(C)C)c(C(C)O)c(-c2ccc(F)cc2)c1CO` (racemic) [Example 93, (±)-2,6-Diisopropyl-3-hydroxymethyl-4-(4-fluorophenyl-5-(1-hydroxy-ethyl)pyridine], the inhibition at 20 µM in assay [3] is 28.3%. Regarding `CCCc1c(C(C)C)nc(C(C)C)c(CO)c1-c1ccc(F)cc1O` (single isomer, unassigned) [Example 239-E2, 2,6-Diisopropyl-3-(1-hydroxymethyl)-4-(4-fluoro-2-hydroxyphenyl)-5-propylpyridine], the IC50 in assay [3] was 50 nM. Regarding `Cc1ccccc1/C=C/c1c(C(C)C)nc(C(C)C)c(CO)c1-c1ccc(F)cc1` [Example 40, 2,6-Diisopropyl-3-hydroxymethyl-4-(4-fluorophenyl)-5-[2(E)-(2-methyl-phenyl)ethenyl]pyridine], the IC50 in assay [3] amounted to 750 nM. As for `CCCCCc1c(C(C)(C)O)nc(C(C)C)c(CO)c1-c1ccc(F)cc1` [Example 219, 2-(1-Hydroxy-1-methylethyl)-3-pentyl-4-(4-fluorophenyl)-5-hydroxymethyl-6-isopropylpyridine], the inhibition at 20 µM in assay [3] was 5.11%. For the compound `CCCc1c(C(C)C)cc(C(C)C)c(CO)c1-c1ccc(F)cc1O` (racemic) [Example 241, 3,5-Diisopropyl-2-hydroxymethyl-6-propyl-4'-fluoro-2'-hydroxy-1,1'-biphenyl], the IC50 in assay [3] was 110 nM.

Compound `CCCCCc1c(C(C)C)nc(C(C)C)c(CO)c1-c1ccc(CC)cc1` [Example 132, 2,6-Diisopropyl-3-hydroxymethyl-4-(4-ethylphenyl)-5-pentylpyridine] had an inhibition at 20 µM in assay [3] of 42.5%.

In assay [3], `CCCCCc1c(CO)nc(C(C)C)c(CO)c1-c1ccc(F)cc1` [Example 200, 2,5-Bis(hydroxymethyl)-3-pentyl-4-(4-fluorophenyl)-6-isopropylpyridine] returned an inhibition at 20 µM of 32.8%. With `C=Cc1nc(C(C)C)c(CO)c(-c2ccc(F)cc2)c1CCCCC` [Example 214, 2-Ethenyl-3-pentyl-4-(4-fluorophenyl)-5-hydroxymethyl-6-isopropylpyridine], in assay [3], the IC50 worked out at 5000 nM.

In the case of `CC(C)=Cc1c(C)nc(C)c(CO)c1-c1ccccc1` [Example 2], the inhibition at 20 µM in assay [3] stood at 2.73%. Turning to `CCCCCc1c(C(C)C)cc(C(C)C)c(C(C)O)c1-c1ccc(F)cc1` (single isomer, unassigned; (+)) [Example 193, (+)-3,5-Diisopropyl-2-(1-hydroxyethyl)-6-pentyl-4'-fluoro-1,1-biphenyl], in assay [3], the IC50 is 86 nM. Consider `CCCCCc1c(C(O)CC)nc(C(C)C)c(CO)c1-c1ccc(F)cc1` (centres unmarked) [Example 212, 2-(1-Hydroxypropyl)-3-pentyl-4-(4-fluorophenyl)-5-hydroxymethyl-6-isopropylpyridine], for which the IC50 in assay [3] came out at 14000 nM. Consider `CCCCCc1c(C(C)C)nc(C(C)C)c(C(O)C[S@+]([O-])c2ccc(C)cc2)c1-c1ccc(F)cc1` (single isomer, unassigned) [Example 112], for which the inhibition at 20 µM in assay [3] was 4.17%.

In the case of `CCCc1c(C(C)C)nc(C(C)C)c(CO)c1-c1ccc(F)cc1O` (racemic) [Example 239-rac, 2,6-Diisopropyl-3-(1-hydroxymethyl)-4-(4-fluoro-2-hydroxyphenyl)-5-propylpyridine], the IC50 in assay [3] came to 80 nM. For the compound `CCCC=Cc1c(C(C)C)nc(C(C)C)c(CO)c1-c1ccc([S+](C)[O-])cc1` (centres unmarked) [Example 175, 2,6-Diisopropyl-3-hydroxymethyl-4-[4-(methylsulfinyl)phenyl]-5-(pent-1-enyl)pyridine], testing at 20 µM in assay [3] gave an inhibition of 40.9%.
